Results on two compounds are retold here after patent publication US7923984B2, “Universal, wireless, nano-optical voltmeters” (The Regents of the University Of Michigan, priority 2007, dated 2011).

For test [1], the system named is mitochondrial membrane E field in C6 glioma cells. The test can be described thus: CCCP depolarization of mitochondria in C6 gliomas monitored by NOV. The test is classed as cell-based, Mouse. To be noted: CCCP total concentration 10 μM. As to the method: Depolarization, comparison with TMRM, and cytosol measurements were performed as follows. Mouse C6 glioma cells were plated on to glass cover slips at a concentration of approximately 2.5×10^5 cells/mL. Cells were incubated in DMEM supplemented with 10% FBS and 1% p/s overnight. The media was then removed and replaced with fresh media. NOVs were added to the suspension (125-250 μg particles) and the cells incubated for 30 minutes. The cover slip was rinsed with HBSS containing 10 mmol N-2-Hydroxyethylpiperazine-N′-2-Ethane Sulfonic Acid (HEPES) and placed in a stainless steel cell chamber with 1 mL HBSS containing 10 mmol HEPES. […]
Image analysis was performed as follows. Images were transferred to the MetaMorph image analysis package and regions of interest chosen consistent with TMRM-induced mitochondrial fluorescence, or the autofluorescent mitochondria of the astrocytes. […] The average pixel intensity ratio of the 600 nm image versus the 700 nm image was then calculated. For the TMRM channel, the average pixel intensity was recorded.
CCCP depolarization was performed as follows. […] A region of interest was first determined in Metamorph by the punctuated bright areas that indicated mitochondria through TMRM localization. The emission ratio was then determined at the measurement time points. […]

In test [2] the test system is mitochondrial membrane E field in DITNC astrocytes. The test can be described thus: Sequential CCCP depolarizations in astrocytes monitored by NOVs. Type of test: cell-based. To be noted: 5 μM CCCP, second dose at 46 minutes. As to the method: Repeat depolarizations were performed as follows. Astrocytes were prepared as above, but the cell chamber only contained 500 μL of HBSS with HEPES. 500 μL CCCP (5 μM final concentration in chamber) was added and images were collected every minute for the first 10 minutes after the addition of CCCP and every 5 minutes thereafter until the 45 minute time point. Then 500 μL of the CCCP solution was added at the 46 minute time point, and the images taken every minute until the 55 minute time point and every five minutes until the 90 minute time point.
Image analysis was performed as follows. Images were transferred to the MetaMorph image analysis package and regions of interest chosen consistent with TMRM-induced mitochondrial fluorescence, or the autofluorescent mitochondria of the astrocytes. In some cases, the images were expanded and regions of interest (ROI) were also chosen from the surrounding cytosol. The average pixel intensity ratio of the 600 nm image versus the 700 nm image was then calculated. For the TMRM channel, the average pixel intensity was recorded.
Sequential depolarizations were performed as follows. Astrocytes with autofluorescent mitochondria (to eliminate the need for TMRM) were incubated with NOVs, transferred to a confocal microscope, and the mitochondrial membrane depolarized with the use of CCCP. […]

The test system is the same in test [3]. The test can be described thus: CCCP challenge of mitochondrial membrane E field in DITNC astrocytes measured by E-PEBBLEs. Type of test: cell-based, rat. The conditions noted are these: CCCP 12.2 μM added at 3 min 40 s. As to the method: Mitochondrial membrane and cytosol potentials were measured as follows. Immortalized rat (DITNC) astrocytes with autoflourescent mitochondria (American Type Culture Collection, Manassas, Va.) were plated on to glass cover slips at a concentration of ˜2×10^5 cells/mL. Cells were incubated in Dulbecco's Modified Eagle Medium (DMEM) supplemented with 10% fetal bovine serum and 1% penicillin/streptomycin (Invitrogen, Carlsbad, Calif.) overnight. The media was then removed and replaced with fresh media. […] The cover slip was rinsed with Hank's Balanced Salt Solution (HBSS) (Invitrogen, Carlsbad, Calif.) containing 10 mmol N-2-Hydroxyethylpiperazine-N′-2-Ethane Sulfonic Acid (HEPES) and placed in a stainless steel cell chamber with 1 mL HBSS containing 10 mmol HEPES. In some cases, tetramethylrhodamine methyl ester (TMRM) (Molecular Probes, Eugene, Oreg.) dissolved in dimethyl sulfoxide (DMSO) was added to the chamber for a total concentration of ˜50 nM to confirm mitochondrial fluorescence.
The entire chamber was mounted on a confocal microscope at room temperature (Olympus IX70 connected to a Life Science Resources UltraView equipped with an Ar—Kr laser and a Lambda 10-2 Sutter wheel from Sutter Instrument Co. Novato, Calif.) and examined with a 60× objective connected to a Z series motor. Four Z stacks were taken 1 minute apart, starting with time zero. […] Slices analyzed were ˜3-4 microns into the cell as measured from the bottom of the cell. […]
Cellular image analysis was performed as follows. Images of specific focal planes were transferred to the MetaMorph image analysis package and regions of interest (ROI) chosen consistent with TMRM-induced mitochondrial fluorescence, or the autofluorescent mitochondria of the astrocytes. […] The average pixel intensity was determined for each ROI, and the emission ratio of the 525:700 nm images was then calculated. In some cases, the emission ratio of 600:700 nm was calculated. […] For the TMRM channel, the average pixel intensity was recorded. […]

For test [4] the test system is unchanged. The test can be described thus: Repeated CCCP depolarizations in astrocytes measured by E-PEBBLEs. Type of test: cell-based, rat. The conditions noted are these: 3.1 μM at 3 min 50 s, second dose at 33 min 50 s; 600:700 nm ratio. The protocol:
Repeated depolarizations of mitochondrial membrane potentials were performed as follows. Astrocytes were prepared as described above. Z series of Images were taken every minute for 15 minutes and every 5 minutes thereafter for 30 minutes. At time 3 minutes 50 sec, 1 μL of a CCCP solution (3.1 mM dissolved in DMSO and HBSS with HEPES; concentration in chamber was 3.1 μM) was added to the chamber. Starting at the 30 minute time point, images were again taken every minute until the 45 minute time point and every five minutes thereafter until the 60 minute time point. At time 33 minutes 50 seconds, a second dose of CCCP (3.1 mM) was added. The final concentration in the cell chamber for CCCP was 6.1 μM.
Cellular image analysis was performed as follows. Images of specific focal planes were transferred to the MetaMorph image analysis package and regions of interest (ROI) chosen consistent with TMRM-induced mitochondrial fluorescence, or the autofluorescent mitochondria of the astrocytes. In some cases, the images were expanded and regions of interest were also chosen from the surrounding cytosol. The average pixel intensity was determined for each ROI, and the emission ratio of the 525:700 nm images was then calculated. In some cases, the emission ratio of 600:700 nm was calculated. […] For the TMRM channel, the average pixel intensity was recorded. […]

The test system of test [5] is astrocytes, mitochondrial and microfilament regions. As to the kind of experiment: CCCP challenge of mitochondrial and microfilament regions in astrocytes. The test is classed as cell-based. To be noted: CCCP at 3 min 45 sec. The protocol:
Microfilaments in astrocytes. Astrocytes were co-incubated with E-PEBBLEs and alexafluor-phalloidin (a microfilament stain). The fluorescence arising from the mitochondria, E-PEBBLEs, and microfilaments were able to be resolved though use of different fluorescent emission filters.
The cells were challenged with CCCP at 3 min 45 sec using normal experimental parameters, as described in Example 7.

Another test deals with C6 glioma cells. The test can be described thus: Localization, uptake and cytotoxicity of particles in C6 glioma cells. To be noted: same final dye concentration as delivered in the NOV. The test is classed as cell-based, Rat.
The test system of a further test is DITNC astrocytes. The test can be described thus: Uptake, localization and tolerability of E-PEBBLEs in astrocytes. Type of test: cell-based, rat. The conditions noted are these: same final dye concentration as delivered in the E-PEBBLEs.

Structures can show the parent of a compound that is named as a salt.

Turning to `N#CC(C#N)=NNc1cccc(Cl)c1` [CCCP, Carbonyl cyanide 3-chlorophenylhydrazone], the “time for mitochondrial E field to approach zero after addition of CCCP” value in test [1] is “approximately 10 minutes”. Moreover, in test [2], the “change of mitochondrial E field after CCCP” value was “decrease in the E field during the first 10 minutes”. For the same compound, in test [3], the “drop in E field from minute 3 to minute 4” value was determined as 55%, the “mitochondrial E field at t=4 min after CCCP” value was −1.4×10^6 V/m and the “overall drop in E field from t=0 min to t=30 min” value is on record as 55%. Moreover, in test [4], the “change of mitochondrial E field after repeated CCCP doses” value is listed as “the E field rapidly decreases, followed by a modest repolarization”. Moreover, in test [5], the “response of microfilament regions to CCCP” value was “spike at the 10-15 minute time point” and the “response of mitochondrial regions to CCCP” value was “normal depolarization”.

In the case of `CCCCN(CCCC)c1ccc2cc(C=Cc3cc[n+](CCCS(=O)(=O)[O-])cc3)ccc2c1` [free dye, pyridinium, 4-(2-(6-(dibutylamino)-2-naphthalenyl)ethenyl)-1-(3-sulfopropyl)-, hydroxide, inner salt], the “fluorescence of cells exposed to free dye in water (uptake)” value in the test on C6 glioma cells is “did not fluoresce”. In the test on DITNC astrocytes, the “fluorescence of cells exposed to free dye in an aqueous solution (uptake)” value is recorded as “did not fluoresce”.
